In PubChem BioAssay (NCI):
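Five compound concentrations were applied to cells in 96-well plates for 48 hours; endpoints were derived by simple linear interpolation of the resulting dose-response curve. GI50: concentration for 50% inhibition of growth. TGI is the concentration that stops growth completely.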

Assays:
Assay in all cases: inhibition of tumour cell growth, NCI panel, 48 h
[1] = tested on: MDA-MB-435
[2] = tested on: M14 melanoma
[3] = tested on: HCC-2998 colon
[4] = tested on: U251 CNS
[5] = tested on: COLO 205 colon
[6] = tested on: ACHN renal
[7] = tested on: CAKI-1 renal
[8] = tested on: MCF7 breast
[9] = tested on: SK-MEL-28 melanoma
[10] = tested on: MOLT-4 leukemia

SMILES	GI50 [1]	TGI [1]	GI50 [2]	TGI [2]	GI50 [3]	TGI [3]	GI50 [4]	TGI [4]	GI50 [5]	TGI [5]	GI50 [6]	TGI [6]	GI50 [7]	TGI [7]	GI50 [8]	TGI [8]	GI50 [9]	TGI [9]	TGI [10]	GI50 [10]
Cc1ccc(S(=O)(=O)N(C)C)cc1[N+](=O)[O-]	> 100 µM	> 100 µM	> 100 µM	> 100 µM	> 100 µM	> 100 µM	> 100 µM	> 100 µM	> 100 µM	> 100 µM	> 100 µM	> 100 µM	> 100 µM	> 100 µM	> 100 µM	> 100 µM	> 100 µM	> 100 µM	–	–
Nc1nc2ncn(CCO)c2c(=O)[nH]1	–	–	–	–	–	> 100 µM	–	> 100 µM	–	> 100 µM	–	> 100 µM	–	–	–	–	–	> 100 µM	> 100 µM	–
COc1cc(OC)cc(N2CCC(c3c(N)nc(N)nc3Cl)CC2)c1	–	–	–	> 100 µM	–	> 100 µM	–	–	–	> 100 µM	–	> 100 µM	–	> 100 µM	–	–	–	> 100 µM	> 100 µM	–
COc1ccc(CC(=O)c2cc(OC)c(OC)cc2C)cc1OC	–	–	–	> 100 µM	–	> 100 µM	–	> 100 µM	–	> 100 µM	–	> 100 µM	–	> 100 µM	–	–	–	> 100 µM	> 100 µM	–
CC(C)(C)c1nc2c(o1)C(=Nc1ccccc1)c1ccccc1C2=O	–	–	–	6.1 µM	–	42.6 µM	–	14 µM	–	63 µM	–	26.6 µM	–	64.9 µM	–	–	–	10.8 µM	> 100 µM	–
Cc1nc2sc(C(=O)Nc3cccc4ccccc34)c(N)c2cc1C(C)O (stereo not given)	–	–	0.176 µM	> 50 µM	0.647 µM	> 50 µM	0.227 µM	> 50 µM	0.234 µM	7.64 µM	0.284 µM	> 50 µM	0.192 µM	> 50 µM	0.17 µM	> 50 µM	0.882 µM	> 50 µM	> 50 µM	0.227 µM
CC(=O)[CH-]C(=O)c1ccccc1.CC(=O)[CH-]C(=O)c1ccccc1.[Nd+3].[OH-].[OH3+]	–	–	> 100 µM	> 100 µM	> 100 µM	> 100 µM	> 100 µM	> 100 µM	> 100 µM	> 100 µM	> 100 µM	> 100 µM	> 100 µM	> 100 µM	–	–	> 100 µM	> 100 µM	> 100 µM	> 100 µM
CN(C)CCC1(C2=CCCC2)CC/C(=C\c2ccc3c(c2)OCO3)C1=O (stereo not given)	–	–	–	28.3 µM	–	29.6 µM	–	29 µM	–	47.7 µM	–	29.6 µM	–	–	–	–	–	27.4 µM	31.4 µM	–
COc1nc(OC)c2c(=O)oc(-c3ccccc3)cc2n1	–	–	–	–	–	> 100 µM	–	> 100 µM	–	–	–	> 100 µM	–	> 100 µM	–	–	–	> 100 µM	> 100 µM	–
C=C1C(=O)O[C@H]2[C@H]1CC/C(COC(=O)OCCCCCOC(=O)OC/C1=C/CC[C@@]3(C)O[C@H]3[C@H]3OC(=O)C(=C)[C@@H]3CC1)=C\CC[C@@]1(C)O[C@@H]21	0.527 µM	2.13 µM	0.406 µM	1.81 µM	–	–	1.31 µM	2.82 µM	0.199 µM	0.438 µM	0.176 µM	0.341 µM	0.308 µM	1.02 µM	–	–	0.252 µM	0.842 µM	0.727 µM	0.229 µM
CCCCCCC1CCC2CCCC(C)N12 (stereo not given)	–	–	–	76.9 µM	–	45.6 µM	–	> 100 µM	–	34.1 µM	–	> 100 µM	–	> 100 µM	–	–	–	> 100 µM	47.1 µM	–
O=C1OCC(c2ccc(O)c(O)c2)=C1c1cc(O)c(O)c(O)c1	17 µM	32.5 µM	23.9 µM	69.7 µM	–	–	17.9 µM	32.7 µM	23.3 µM	57.7 µM	33.3 µM	> 100 µM	14.3 µM	27.9 µM	36.9 µM	> 100 µM	38.5 µM	> 100 µM	27.8 µM	12.9 µM
CC(C)C1CN1CC(O)Cn1ccnc1[N+](=O)[O-] (stereo not given)	–	–	–	> 100 µM	–	> 100 µM	–	> 100 µM	–	> 100 µM	–	> 100 µM	–	> 100 µM	–	> 100 µM	–	> 100 µM	> 100 µM	–
O=C(Cc1ccccc1)Oc1ccc2c(-c3ccccc3)c(C(=O)Nc3ccc(Cl)cc3)c(=O)oc2c1	–	–	–	> 100 µM	–	> 100 µM	–	> 100 µM	–	> 100 µM	–	> 100 µM	–	> 100 µM	–	–	–	> 100 µM	> 100 µM	–
COc1ccc(-c2cc(C(=O)Nc3cccc(C(F)(F)F)c3)[nH]c(=S)n2)cc1	–	–	–	> 100 µM	–	> 100 µM	–	> 100 µM	–	> 100 µM	–	> 100 µM	–	> 100 µM	–	–	–	> 100 µM	> 100 µM	–
CC(NC(=O)c1ccccc1)C(=O)N(Cc1ccccc1)Cc1ccccc1 (stereo not given)	–	–	–	39.1 µM	–	> 100 µM	–	91.7 µM	–	40.8 µM	–	> 100 µM	–	> 100 µM	–	–	–	97.6 µM	35.6 µM	–
O=c1cc2n(c(=O)[nH]1)C1OC(C(O)C1O)[C@@H]2CCO (stereo not given in full)	–	–	–	> 100 µM	–	–	–	> 100 µM	–	–	–	> 100 µM	–	> 100 µM	–	–	–	> 100 µM	> 100 µM	–
COC(=O)c1cnc2nc(N3CCOCC3)[nH]n2c1=O	–	–	–	> 100 µM	–	> 100 µM	–	> 100 µM	–	> 100 µM	–	> 100 µM	–	> 100 µM	–	–	–	> 100 µM	> 100 µM	–
CS(=O)(=O)C1S(=O)(=O)OCCOS1(=O)=O	–	–	–	> 100 µM	–	> 100 µM	–	> 100 µM	–	> 100 µM	–	> 100 µM	–	> 100 µM	–	–	–	> 100 µM	> 100 µM	–
CN(C)CCNC(=O)c1ccc2ccc3cccnc3c2n1	–	–	–	33.1 µM	–	25.4 µM	–	> 88.8 µM	–	23.9 µM	–	97.3 µM	–	> 85.5 µM	–	–	–	> 61.6 µM	32.3 µM	–
CCCCN(CC)C(=O)C(=O)C1C(=O)Nc2ccccc2S1=O (stereo not given)	–	–	–	> 100 µM	–	> 100 µM	–	> 100 µM	–	> 100 µM	–	> 100 µM	–	> 100 µM	–	–	–	> 100 µM	> 100 µM	–
Cc1cccc(C)c1NC(=O)CCC(=O)NNC(=O)c1cc(O)c2ccccc2c1	–	–	–	> 100 µM	–	> 100 µM	–	> 100 µM	–	49 µM	–	> 100 µM	–	> 100 µM	–	–	–	> 100 µM	> 100 µM	–
